# Experimental data reported in PubChem BioAssay (NCI).
#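 Growth conditions: 96-well plates. Treatment: test compound, 48 hours, 5 concentrations. Analysis: linear interpolation between bracketing concentrations; unreached endpoints set to highest concentration. GI50 marks 50% less growth. TGI: total growth inhibition.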
# Experiments:
# Assay in all cases: NCI anticancer screen, dose series, 48 h
# [1] = tested on: MCF7 breast
# [2] = tested on: KM12 colon
# [3] = tested on: SW-620 colon
# [4] = tested on: U251 CNS
# [5] = tested on: SK-MEL-2 melanoma
# [6] = tested on: SNB-75 CNS
# [7] = tested on: DU-145 prostate
# [8] = tested on: HT29 colon
# [9] = tested on: SF-295 CNS
# [10] = tested on: HL-60(TB) leukemia
# [11] = tested on: OVCAR-8 ovarian
# [12] = tested on: SN12C renal
# [13] = tested on: OVCAR-3 ovarian
# [14] = tested on: MALME-3M melanoma
# [15] = tested on: NCI-H23 lung
# [16] = tested on: SK-MEL-28 melanoma
# [17] = tested on: HCT-116 colon
# [18] = tested on: SK-OV-3 ovarian
# [19] = tested on: SR leukemia
# [20] = tested on: OVCAR-5 ovarian
# [21] = tested on: MOLT-4 leukemia
# [22] = tested on: COLO 205 colon
# [23] = tested on: OVCAR-4 ovarian
# [24] = tested on: UACC-62 melanoma
# [25] = tested on: MDA-MB-435
# [26] = tested on: UO-31 renal
# [27] = tested on: HS 578T breast
# [28] = tested on: EKVX NSCLC
# [29] = tested on: RXF 393 renal
# [30] = tested on: HOP-92 NSCLC
# [31] = tested on: TK-10 renal
# [32] = tested on: T-47D breast
# [33] = tested on: MDA-MB-231 breast
# [34] = tested on: UACC-257 melanoma
# [35] = tested on: NCI-H460 lung
# [36] = tested on: LOX IMVI melanoma
# [37] = tested on: ACHN renal
# [38] = tested on: IGROV1 ovarian
# [39] = tested on: SNB-19 CNS
# [40] = tested on: HCT-15 colon
# [41] = tested on: A498 renal
# [42] = tested on: HCC-2998 colon
# [43] = tested on: 786-0 renal
# [44] = tested on: RPMI-8226 leukemia
# [45] = tested on: CCRF-CEM leukemia
# [46] = tested on: CAKI-1 renal
# [47] = tested on: K-562 leukemia
# [48] = tested on: NCI-H522 lung
# [49] = tested on: SK-MEL-5 melanoma
# [50] = tested on: SF-539 CNS
# [51] = tested on: BT-549 breast
# [52] = tested on: NCI/ADR-RES ovarian
# [53] = tested on: NCI-H226 lung
# [54] = tested on: PC-3 prostate
# [55] = tested on: A549 NSCLC
# [56] = tested on: HOP-62 NSCLC
# [57] = tested on: SF-268 CNS
smiles,measurement,setting,value
Cc1ccc(C(=O)Nc2ccc(CNCCN3CCOCC3)c(C(F)(F)F)c2)cc1C#Cc1cnc2cccnn12,GI50,[1],1420 nM
same,TGI,[1],3200 nM
same,GI50,[2],393 nM
same,TGI,[2],2680 nM
same,GI50,[3],1660 nM
same,TGI,[3],10500 nM
same,GI50,[4],1840 nM
same,TGI,[4],4650 nM
same,GI50,[5],1270 nM
same,TGI,[5],3440 nM
same,GI50,[6],64.4 nM
same,TGI,[6],778 nM
same,GI50,[7],2920 nM
same,TGI,[7],8190 nM
same,GI50,[8],794 nM
same,TGI,[8],5990 nM
same,GI50,[9],1620 nM
same,TGI,[9],3570 nM
same,GI50,[10],145 nM
same,TGI,[10],2600 nM
same,GI50,[11],3090 nM
same,TGI,[11],10800 nM
same,GI50,[12],1750 nM
same,TGI,[12],5680 nM
same,GI50,[13],2390 nM
same,TGI,[13],6240 nM
same,GI50,[14],229 nM
same,TGI,[14],1870 nM
same,GI50,[15],890 nM
same,TGI,[15],3030 nM
same,GI50,[16],1220 nM
same,TGI,[16],2740 nM
same,GI50,[17],500 nM
same,TGI,[17],2430 nM
same,GI50,[18],3910 nM
same,TGI,[18],13600 nM
same,GI50,[19],1400 nM
same,TGI,[19],6640 nM
same,GI50,[20],1850 nM
same,TGI,[20],8170 nM
same,GI50,[21],1310 nM
same,TGI,[21],5370 nM
same,GI50,[22],1230 nM
same,TGI,[22],3820 nM
same,GI50,[23],2520 nM
same,TGI,[23],14500 nM
same,GI50,[24],1450 nM
same,TGI,[24],3430 nM
same,GI50,[25],746 nM
same,TGI,[25],2320 nM
same,GI50,[26],1450 nM
same,TGI,[26],3470 nM
same,GI50,[27],1810 nM
same,TGI,[27],5240 nM
same,GI50,[28],3120 nM
same,TGI,[28],10700 nM
same,GI50,[29],1630 nM
same,TGI,[29],3210 nM
same,GI50,[30],761 nM
same,TGI,[30],3120 nM
same,GI50,[31],2610 nM
same,TGI,[31],7510 nM
same,GI50,[32],2370 nM
same,TGI,[32],6730 nM
same,GI50,[33],1150 nM
same,TGI,[33],3190 nM
same,GI50,[34],1690 nM
same,TGI,[34],3570 nM
same,GI50,[35],1760 nM
same,TGI,[35],3900 nM
same,GI50,[36],515 nM
same,TGI,[36],1870 nM
same,GI50,[37],2820 nM
same,TGI,[37],9550 nM
same,GI50,[38],1270 nM
same,TGI,[38],3430 nM
same,GI50,[39],3110 nM
same,TGI,[39],9730 nM
same,GI50,[40],925 nM
same,TGI,[40],4900 nM
same,GI50,[41],1940 nM
same,TGI,[41],4280 nM
same,GI50,[42],1550 nM
same,TGI,[42],3240 nM
same,GI50,[43],1210 nM
same,TGI,[43],3290 nM
same,GI50,[44],1420 nM
same,TGI,[44],3830 nM
same,GI50,[45],1550 nM
same,TGI,[45],8230 nM
same,GI50,[46],2900 nM
same,TGI,[46],7230 nM
same,TGI,[47],11600 nM
same,GI50,[48],1990 nM
same,TGI,[48],5220 nM
same,GI50,[49],1450 nM
same,TGI,[49],2810 nM
same,GI50,[50],1320 nM
same,TGI,[50],2670 nM
same,GI50,[51],2270 nM
same,TGI,[51],4560 nM
same,GI50,[52],2170 nM
same,TGI,[52],7470 nM
same,GI50,[53],1660 nM
same,TGI,[53],7590 nM
same,GI50,[54],2070 nM
same,TGI,[54],6170 nM
same,GI50,[55],2540 nM
same,TGI,[55],10600 nM
same,GI50,[56],2160 nM
same,TGI,[56],6550 nM
same,GI50,[57],2460 nM
same,TGI,[57],7040 nM
